For data set [1], the target named is T1, target-extender complex 14′ (caspase-3 modified with extender 14) (Homo sapiens, UniProt P42574).
T1 construct: made in house
T1 sequence (P42574 29-175): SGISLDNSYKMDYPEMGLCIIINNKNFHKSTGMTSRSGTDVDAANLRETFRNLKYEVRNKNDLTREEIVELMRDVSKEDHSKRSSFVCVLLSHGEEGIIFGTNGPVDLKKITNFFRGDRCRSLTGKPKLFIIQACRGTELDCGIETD
T1 sequence (P42574 176-277): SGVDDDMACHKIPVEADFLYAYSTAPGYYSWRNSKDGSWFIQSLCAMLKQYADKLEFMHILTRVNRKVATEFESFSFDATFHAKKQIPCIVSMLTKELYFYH
Kind of data set: Tethering with extender, target-extender complex 14′. Format: binding. The conditions noted are these: library of about 10,000 ligand candidates. The text has this: (§1) Target-extender complexes 13′ and 14′ were each used in the tethering method against a library of about 10,000 ligand candidates. An illustrative example of a selected ligand-candidate using target-extender complex 13′ is [drawing 39]

Data set [2] addresses T2, target-extender complex 13′ (caspase-3 modified with extender 13) (Homo sapiens, UniProt P42574).
T2 construct: made in house
T2 sequence (P42574 29-175): T1 sequence (P42574 29-175)
T2 sequence (P42574 176-277): T1 sequence (P42574 176-277)
Description: Tethering with extender, target-extender complex 13′. Format: binding. The conditions noted are these: library of about 10,000 ligand candidates.
Description: as §1
(§2) This example describes the modification of caspase-3 with extender 13. Caspase-3 was cloned, overexpressed, and purified using standard techniques. […] The protein was concentrated in a Ultrafree 5 MWCO unit and the buffer exchanged to 0.1 M TES pH 7.5 using a Nap-5 column.

The next data set addresses E. coli TS (Escherichia coli, UniProt P0A884). Kind of data set: Thymidylate synthase inhibition, enzymatic assay (Michaelis-Menten kinetics) on tether-free analogs. Format: biochemical. From the text: TS is an ideal validating target for several reasons. […] Second, a simple colorimetric assay exists for determining whether a potential ligand binds to TS. This assay depends on the rate of conversion of 5,10-CH2—H4folate to H2folate in the presence of dUMP. A second assay for binding is also spectrophotometric and relies on competition with pyridoxal-5′-phosphate (“PLP”), which forms a complex with TS with a unique spectral signature.
The TS chosen for the purposes of illustration is the E. coli TS. […] The E. coli TS includes four other cysteines but these are not conserved among other TS enzymes and are buried and thus not accessible. However, if one or more of these cysteines were reactive toward disulfides, then mutant versions of these enzymes can be used where these cysteines are mutated to another amino acid such as alanine.
In one illustrative example, the tethering experiment is performed in the presence of a known substrate. […] In contrast, a ligand candidate that lacks an inherent binding affinity or cysteamine would be easily displaced by the substrate. Another illustrative example is traditional enzymatic assays on the tether-free analog. For example, the affinity of the [drawing 14] R^c portion of the ligand fragment was determined using Michaelis-Mention kinetics.
The inhibition constants of the untethered versions of the selected ligand candidates were determined.

Data set [3] concerns the target T3, caspase-3 (Homo sapiens, UniProt P42574).
T3 sequence (P42574 29-175 limits assumed): T1 sequence (P42574 29-175)
T3 sequence (P42574 176-277 limits assumed): T1 sequence (P42574 176-277)
Description: Caspase-3 inhibition (Ki). Format: biochemical. The conditions noted are these: for change of binding affinity relative to compound 18: removal of hydroxyl group / hydroxyl and acid moiety.

For data set [4], the target named is T3, caspase-3. Description: Modification of caspase-3 with extender (mass-spectroscopy). Format: binding. To be noted: ambient temperature, 3.5 hours.
Description: as §2

Data set [5] is classed as physicochemical. How it is done: The thiirane (17 mg, 0.047 mmol) was dissolved in dry DCM (5 ml), chilled in an ice-water bath, and treated with 5 ml trifluoroacetic acid. The reaction was allowed to proceed on ice for 40 minutes at which point it was evaporated to dryness and purified using reverse phase HPLC to yield compound 40 as a white solid (1.8 mg, 0.0058 mmol, 13%, ES (+) MS m/z=332 (M+Na)). […] It is generally preferred that the conjugation reaction of this extender to the active site thiol of caspases is performed for only 2–5 minutes at pH 6 and at low stoichiometries with respect to enzyme (1–3 equivalents)

Setting [6] is: Table 2, glutamate-grafted N-tosyl-proline derivatives.
Setting [7] is: untethered versions of selected ligand candidates, Example 6.

The text below walks through data of patent US6998233B2, “Methods for ligand discovery” (Sunesis Pharmaceuticals, Inc., priority 1998, dated 2006).

Read-outs that look alike come from different tables or passages of the source.

As usually defined, the Ki is the equilibrium dissociation constant of an inhibitor or competing ligand from its target. A high value points to a looser hold on the target.

Sequence of E. coli TS (P0A884 whole entry): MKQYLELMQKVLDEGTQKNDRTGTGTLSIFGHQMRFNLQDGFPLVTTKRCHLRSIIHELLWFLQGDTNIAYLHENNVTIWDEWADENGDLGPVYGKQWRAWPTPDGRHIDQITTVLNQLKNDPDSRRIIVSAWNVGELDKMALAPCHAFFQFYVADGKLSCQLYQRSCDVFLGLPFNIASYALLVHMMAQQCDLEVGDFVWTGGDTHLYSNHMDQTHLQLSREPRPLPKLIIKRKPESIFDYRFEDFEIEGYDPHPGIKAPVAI

For the compound `CS(=O)(=O)c1ccc(C(=O)NCCSSCCN)s1` [ligand candidate 16], the selection in tethering entry in data set [1] is reported as “selected”; in data set [2], “not selected”.
On to `O=C(O)CCCC[C@H](NC(=O)c1ccc(S(=O)(=O)N2CCCC2C(=O)O)cc1)C(=O)O` (stereo partly shown) [compound 8], for which, at E. coli TS (setting [6]), the Ki is 32 ± 2 µM.
Consider `Cc1ccc(S(=O)(=O)N2CCC[C@@H]2C(=O)O)cc1` [compound 1, N-tosyl-D-proline], for which the mode of inhibition result on E. coli TS (competed with the natural substrate dUMP) was “weak but competitive inhibitor”. The Ki at E. coli TS (free acid, Michaelis-Menten kinetics) came out at 1100 ± 250 µM.
Compound `NC(=O)[C@H](CCC(=O)O)NC(=O)c1ccc(S(=O)(=O)N2CCCC2C(=O)O)cc1` (stereo partly shown) [compound 10] returned a Ki on E. coli TS (setting [6]) of 378 ± 69 µM.
`O=C[C@H](CC(=O)O)NC(=O)CCCCCNS(=O)(=O)c1cccc(C(=O)O)c1` [compound 19] had a Ki at caspase-3 [3] (Table 4) of 15300 nM. The “change of binding affinity relative to compound 18” value at caspase-3 [3] is given as “reduced the affinity by a factor of five”.
As for `NCCSSCCNS(=O)(=O)c1cccc(C(=O)O)c1` [ligand candidate 17], the selection in tethering entry in data set [1] and in data set [2] was “not selected” in each case.
With `O=C(O)COc1ccc(/C=N\OCCCCCCO/N=C/c2ccc(S(=O)(=O)N3CCCC3C(=O)O)cc2)cc1` (stereo not shown) [compound 3], at E. coli TS (setting [7]), the Ki is ~40 µM.
Consider `NCCSSCCNS(=O)(=O)c1ccc(O)c(C(=O)O)c1` [ligand candidate 15], for which the values for the selection in tethering result in data set [1] and in data set [2] were “not selected” and “selected”, respectively.
Consider `CS(=O)(=O)c1ccc(C(=O)NCCCS(=O)(=O)Cc2cccc(S(=O)(=O)N[C@H](C=O)CC(=O)O)c2)s1` [compound 22], for which the Ki at caspase-3 [3] was determined as 330 nM.
`NC(=O)CC[C@H](NC(=O)c1ccc(S(=O)(=O)N2CCCC2C(=O)O)cc1)C(=O)O` (stereo partly shown) [compound 11] had an inhibitory constant (Ki) at E. coli TS (setting [6]) of 61 ± 14 µM.
Regarding `CC(=O)SCC(=O)N[C@@H](CC(=O)O)C(=O)COC(=O)c1c(Cl)cccc1Cl` [compound 13, 2,6-Dichloro-benzoic acid 3-(2-acetylsulfanyl-acetylamino)-4-carboxy-2-oxo-butyl ester], at caspase-3 [4], the “modification of caspase 3 large subunit” value is “complete modification”.
Compound `CC(=O)N[C@@H](CCC(=O)O)C(=O)N[C@H](C(=O)N[C@H](C=O)CC(=O)O)C(C)C` [compound I, reference compound] displayed a Ki at caspase-3 [3] of 51 nM.
Turning to `O=C[C@H](CC(=O)O)NC(=O)CCCCCNS(=O)(=O)c1ccccc1` [compound 20], the inhibition constant (Ki) on caspase-3 [3] (Table 4) is > 100000 nM. Besides, on caspase-3 [3], the “change of binding affinity relative to compound 18” value is “ablated binding affinity entirely”.
The compound `O=C(O)C[C@H](NC(=O)c1ccc(S(=O)(=O)N2CCCC2C(=O)O)cc1)C(=O)O` (stereo partly shown) [compound 6] returned a Ki on E. coli TS (setting [6]) of 242 ± 3 µM.
Consider `CC(C)[C@H](NC(=O)[C@H](CCC(=O)O)NS(=O)(=O)c1ccc(O)c(C(=O)O)c1)C(=O)N[C@H](C=O)CC(=O)O` [compound II], for which, at caspase-3 [3] (addition of salicylate sulfonamide moiety to compound I), the “decrease in binding affinity versus compound I” value is ~300 fold.
On to `O=C[C@H](CC(=O)O)NC(=O)c1ccc(CNS(=O)(=O)c2ccc(O)c(C(=O)O)c2)cc1` [compound 21], for which, on caspase-3 [3], the Ki is ~160 nM and the “Ki better than compound 18” value is “more than 10 fold”. The compound also returned a Ki at caspase-3 [3] (Table 4) of 160 nM. Besides, the “improvement of binding by addition of the salicylate sulfonamide” value on caspase-3 [3] (versus salicylate sulfonamide-less fragment) is on record as “about 200 fold”.
As for `O=C(O)CCCCC[C@H](NC(=O)c1ccc(S(=O)(=O)N2CCCC2C(=O)O)cc1)C(=O)O` (stereo partly shown) [compound 9], on E. coli TS (setting [6]), the Ki was 14 ± 6 µM.
Take `O=C(O)C[C@H](NC(=O)OCc1ccccc1)C(=O)C1CS1` (stereo partly shown) [compound 40]: in data set [5], the “stability as solution in methanol” value is “stable for months” and the “stability in DMSO” value is listed as “not stable”.
Regarding `O=C(O)CCC[C@H](NC(=O)c1ccc(S(=O)(=O)N2CCCC2C(=O)O)cc1)C(=O)O` (stereo partly shown) [compound 7], the Ki on E. coli TS (setting [6]) came out at 23 ± 6 µM.
For `O=C(O)CCCNC(=O)c1ccc(S(=O)(=O)N2CCCC2C(=O)O)cc1` (stereo not shown) [compound 12], on E. coli TS (setting [6]), the Ki was found to be 246 ± 46 µM.
With `O=C(O)COc1ccc(/C=N/OCCCO/N=C/c2ccc(S(=O)(=O)N3CCCC3C(=O)O)cc2)cc1` (stereo not shown) [compound 2], the Ki on E. coli TS (setting [7]) was ~55 µM.
